Assay results as given in PubChem BioAssay (NCI).
“And” between values parts separate entries of the source, which are not always exact repeats. Identical values can stand only once.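 Growth conditions: 96-well plates. Treatment: test compound, 48 hours, 5 concentrations. Analysis: linear interpolation between bracketing concentrations; unreached endpoints set to highest concentration. At the GI50, growth is halved. Definition used: TGI = concentration required for complete inhibition of growth.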

Legend:
Assay in all cases: NCI anticancer screen, dose series, 48 h
HOP-92 NSCLC = system: HOP-92 NSCLC
HT29 colon = system: HT29 colon
SK-MEL-2 melanoma = system: SK-MEL-2 melanoma
EKVX NSCLC = system: EKVX NSCLC
NCI/ADR-RES ovarian = system: NCI/ADR-RES ovarian
UO-31 renal = system: UO-31 renal
DMS 114 small cell lung = system: DMS 114 small cell lung
LOX IMVI melanoma = system: LOX IMVI melanoma
HL-60(TB) leukemia = system: HL-60(TB) leukemia
MOLT-4 leukemia = system: MOLT-4 leukemia

Compound: Cn1cc(-c2nc(-c3c[nH]c4ccncc34)cs2)c2cc(F)ccc21
- GI50 (HOP-92 NSCLC): 1.65 µM
- TGI (HOP-92 NSCLC): 3.42 µM
- GI50 (HT29 colon): 1.44 µM
- TGI (HT29 colon): 2.93 µM
- GI50 (SK-MEL-2 melanoma): 1.92 µM
- TGI (SK-MEL-2 melanoma): 3.58 µM
- GI50 (EKVX NSCLC): 1.72 µM
- TGI (EKVX NSCLC): 3.32 µM
- GI50 (NCI/ADR-RES ovarian): 1.93 µM
- TGI (NCI/ADR-RES ovarian): 4.19 µM
- GI50 (UO-31 renal): 1.57 µM
- TGI (UO-31 renal): 2.92 µM

Compound: C=CC[N+](CCO)(CCO)CCCCCCCCCCCCCCCCCC
- TGI (HOP-92 NSCLC): 3.91 µM
- TGI (HT29 colon): 12 µM
- TGI (DMS 114 small cell lung): 18.4 µM
- TGI (LOX IMVI melanoma): 12.6 µM
- TGI (SK-MEL-2 melanoma): 32.7 µM
- TGI (HL-60(TB) leukemia): 2.51 µM
- TGI (EKVX NSCLC): 47.7 µM
- TGI (NCI/ADR-RES ovarian): 55.8 µM
- TGI (UO-31 renal): 31.4 µM
- TGI (MOLT-4 leukemia): 3.85 µM

Compound: COc1ccc(/C(Cl)=C(\C=O)c2ccccc2)cc1OC
- TGI (HT29 colon): > 100 µM
- TGI (DMS 114 small cell lung): > 100 µM
- TGI (LOX IMVI melanoma): > 100 µM
- TGI (SK-MEL-2 melanoma): > 100 µM
- TGI (HL-60(TB) leukemia): 76.9 µM
- TGI (EKVX NSCLC): > 100 µM
- TGI (UO-31 renal): > 100 µM
- TGI (MOLT-4 leukemia): > 100 µM

Compound: C=C1C(=O)O[C@@H]2OC3(C)CCC4C(C)CCC1C42OO3 (stereo partly specified)
- GI50 (HOP-92 NSCLC): 2.54 µM
- TGI (HOP-92 NSCLC): 6.5 µM and 4.48 µM
- GI50 (HT29 colon): 3.21 µM
- TGI (HT29 colon): 11.2 µM and 6.73 µM
- GI50 (LOX IMVI melanoma): 3.55 µM
- TGI (LOX IMVI melanoma): 12.9 µM and 8.11 µM
- GI50 (SK-MEL-2 melanoma): 3.79 µM
- TGI (SK-MEL-2 melanoma): 15.4 µM and 5.51 µM
- GI50 (HL-60(TB) leukemia): 1.18 µM
- TGI (HL-60(TB) leukemia): 3.55 µM and 2 µM
- TGI (EKVX NSCLC): 24.7 µM
- GI50 (NCI/ADR-RES ovarian): 4.17 µM
- TGI (NCI/ADR-RES ovarian): 18.6 µM and 6.51 µM
- GI50 (UO-31 renal): 4.57 µM
- TGI (UO-31 renal): 17.5 µM and 22.1 µM
- GI50 (MOLT-4 leukemia): 2.23 µM
- TGI (MOLT-4 leukemia): 5.96 µM and 5.53 µM

Compound: N/C(=N\N=C\c1cc2c(cc1Cl)OCO2)NO
- TGI (HOP-92 NSCLC): > 95.1 µM
- TGI (HT29 colon): > 100 µM
- TGI (DMS 114 small cell lung): > 100 µM
- TGI (LOX IMVI melanoma): > 100 µM
- TGI (SK-MEL-2 melanoma): > 88.3 µM
- TGI (HL-60(TB) leukemia): 41.7 µM
- TGI (EKVX NSCLC): > 100 µM
- TGI (NCI/ADR-RES ovarian): 57.2 µM
- TGI (UO-31 renal): 64.2 µM
- TGI (MOLT-4 leukemia): > 100 µM

Compound: O=C1OC(c2ccc(Cl)cc2)(c2ccc(Cl)cc2)c2c1ccc1ccccc21
- TGI (HT29 colon): > 100 µM
- TGI (LOX IMVI melanoma): > 100 µM
- TGI (SK-MEL-2 melanoma): > 100 µM
- TGI (HL-60(TB) leukemia): > 100 µM
- TGI (EKVX NSCLC): > 100 µM
- TGI (UO-31 renal): > 100 µM
- TGI (MOLT-4 leukemia): > 100 µM

Compound: C[C@H](CN1CC(=O)NC(=O)C1)N1CC(=O)NC(=O)C1
- TGI (HOP-92 NSCLC): > 100 µM
- TGI (HT29 colon): > 100 µM
- TGI (LOX IMVI melanoma): > 100 µM
- TGI (EKVX NSCLC): > 100 µM
- TGI (NCI/ADR-RES ovarian): > 100 µM
- TGI (UO-31 renal): > 44.1 µM
- TGI (MOLT-4 leukemia): > 47.5 µM

Compound: Nc1nn(CC(O)CO)c(=O)s1 (stereo unspecified)
- TGI (HT29 colon): > 100 µM
- TGI (DMS 114 small cell lung): > 100 µM
- TGI (LOX IMVI melanoma): > 100 µM
- TGI (SK-MEL-2 melanoma): > 100 µM
- TGI (HL-60(TB) leukemia): > 100 µM
- TGI (EKVX NSCLC): > 100 µM
- TGI (UO-31 renal): > 100 µM
- TGI (MOLT-4 leukemia): > 100 µM

Compound: CCOC(=O)C1=NN(c2ccc(Cl)cc2)C2=CC(C)=NN(C)C(=S)N21
- TGI (HOP-92 NSCLC): > 100 µM
- TGI (HT29 colon): > 100 µM
- TGI (LOX IMVI melanoma): > 100 µM
- TGI (HL-60(TB) leukemia): > 100 µM
- TGI (EKVX NSCLC): 81.9 µM
- TGI (NCI/ADR-RES ovarian): > 100 µM
- TGI (UO-31 renal): > 100 µM
- TGI (MOLT-4 leukemia): > 100 µM

Compound: COc1ccc(/C=N/n2cnc3c(c2=O)S/C(=C2/SC(=S)N(c4ccc(C)cc4)C2=O)N3c2ccccc2)cc1
- TGI (HOP-92 NSCLC): > 100 µM
- TGI (HT29 colon): > 100 µM
- TGI (DMS 114 small cell lung): > 100 µM
- TGI (LOX IMVI melanoma): > 100 µM
- TGI (SK-MEL-2 melanoma): > 100 µM
- TGI (HL-60(TB) leukemia): > 100 µM
- TGI (EKVX NSCLC): > 100 µM
- TGI (UO-31 renal): > 100 µM
- TGI (MOLT-4 leukemia): > 10 µM

Compound: C[C@H](N)C(=O)N[C@@H]1[C@H]2C(=C(O)C[C@@H](O)[C@@H]2O)C(=O)O[C@@H]1C
- TGI (HOP-92 NSCLC): > 100 µM
- TGI (HT29 colon): > 100 µM
- TGI (DMS 114 small cell lung): > 100 µM
- TGI (LOX IMVI melanoma): > 100 µM
- TGI (SK-MEL-2 melanoma): > 100 µM
- TGI (HL-60(TB) leukemia): > 100 µM
- TGI (EKVX NSCLC): > 100 µM
- TGI (NCI/ADR-RES ovarian): > 100 µM
- TGI (UO-31 renal): > 100 µM
- TGI (MOLT-4 leukemia): > 100 µM
